Experimental data taken from PMC5271370, “A High-Content Assay Enables the Automated Screening and Identification of Small Molecules with Specific ALDH1A1-Inhibitory Activity” (PLoS ONE, 2017).
Where two headings read alike, the source gives them in different places.

Assays:
[1] = test system: MIA PaCa-2 cells; assay: 1,536-well high-content imaging ALDEFLUOR assay, MIA PaCa-2; type: cell-based, human; conditions: for Activity in ALDEFLUOR assay, MIA PaCa-2: semi-automated, active = high quality concentration response curve and >50% efficacy, up to 45.8 μM
Protocol: (§1) To miniaturize the assay into a 1536-well format amenable to qHTS, we chose MIA PaCa-2 and HT-29 because of their high levels of ALDH1A1(Fig 1A). Utilizing the 8-step protocol described by Ming et al. as a starting point, we developed a “semi-automated” protocol described in S1 Table. Briefly, we plated 1,000 cells in a volume of 5 μL/well into black-optical quality clear bottom 1,536-well plates, and allowed cells to attach overnight. Culture media was subsequently removed by inverting and centrifuging plates using a plate adaptor as previously described and replaced with 5 μL of a solution of either 500 or 100 nM BAAA substrate in ALDEFLUOR buffer. To identify cells based on nuclear staining, we also included 0.5 nM Hoechst 33342 in the above buffer. […] After incubating the plate for 30 minutes at 37°C, 5% CO2, 85% RH, the remaining substrate was removed by centrifugation as above and replaced with 3 μL of ALDEFLUOR buffer. Fluorescence was subsequently imaged using the IN Cell Analyzer 2200 high-content widefield fluorescence based imager and the resulting images were quantified using the IN Cell Investigator v1.6.2 analysis software (see Experimental Procedures for analysis details).
(§2) The ALDEFLUOR kit was purchased from […] Technologies (Vancouver, Canada; #01700). Cells (5 μL) were dispensed into black, optical quality (cyclic olefin copolymer) clear bottom, medium binding TC treated 1,536-well plates (Aurora Microplates, Whitefish MT) using a Multidrop Combi dispenser (ThermoFisher) and incubated overnight (37°C, 5% CO2, 85% RH). Media was subsequently removed by centrifuging plates upside down using a plate adaptor to collect media. A solution of BAAA substrate ([…] Technologies) and Hoechst 33342 (ThermoFisher, final concentrations of 500 nM and 0.5 nM, respectively) in ALDEFLUOR buffer ([…] Technologies #01700) was dispensed onto cells using a Multidrop Combi followed by immediate transfer (23 nL) of compound or control solutions using a Wako Pin-tool (final percentage of DMSO in the cell plates was 0.5%). Unless otherwise noted, all compounds were assayed as 16-point dilutions spanning a final concentration range of 1.4 nM to […]. […] Cells were incubated for 30 minutes or the indicated amount of time at 37°C, 5% CO2, 85% RH to allow the conversion of BAAA into BAA. Supernatant was subsequently removed by centrifugation as described above, then ALDEFLUOR buffer (3 μl) was dispensed by Multidrop Combi before imaging on an IN Cell 2200 (GE Healthcare).
(§3) The above assay was modified for an online robotic screening system. After cell plating and overnight incubation, 4 μL of media were removed using a 64-tip metal aspirator head on a Wako aspirator station, leaving 1 μL remaining in the well, followed by a 4 μL dispense of BAAA and Hoechst 33342 in ALDEFLUOR buffer, for a final concentration of 500 nM and 0.5 nM, respectively. Immediately following the dispense, 23 nL of compound or control solutions were transferred using a Wako Pin-tool. Cells were incubated for 30 minutes at 37°C, 5% CO2, 85% RH, followed by a 4 μL media removal using the Wako aspirator, and a subsequent 3 μL addition of ALDEFLUOR buffer. Plates were then immediately read on the IN Cell 2200 as described below.
(§4) For images captured on the IN Cell 2200 widefield automated microscope, a 10x 0.45 NA Plan Apo objective lens was used to capture the entire well of the 1,536-well plate using standard DAPI (390/18x, 432/48m) and FITC (475/28x, 525/48m) filter sets at 50 msec and 100 msec exposures, respectively. Images were subsequently analyzed using IN Cell Investigator v1.6.2 analysis software’s canned Multi-Target Analysis algorithm (GE Healthcare). Hoechst stained nuclei were identified using top hat segmentation with a minimum area of 75 μm^2 and sensitivity of 93. […]

[2] = test system: HT-29 cells; assay: 1,536-well high-content imaging ALDEFLUOR assay, HT-29; type: cell-based, human; conditions: for IC50: read-out: Aldefluor IC50 HT-29; for Activity in ALDEFLUOR assay, HT-29: semi-automated, active = high quality concentration response curve and >50% efficacy, up to 45.8 μM
Protocol: as §1, §2, §3, §4

[3] = Homo sapiens, MIA PaCa-2, 0.5 h, validation set, semi-automated protocol, 16-point dilution, 1,000 cells/well, 500 nM BAAA, 30 min, read-out: Aldefluor IC50 MIA PaCa-2
[4] = validation set, semi-automated protocol, 16-point dilution, 1,000 cells/well, 500 nM BAAA, 30 min, read-out: Aldefluor IC50 MIA PaCa-2
[5] = Homo sapiens, HT-29, 0.5 h, validation set, semi-automated protocol, 16-point dilution, 1,000 cells/well, 500 nM BAAA, 30 min
[6] = validation set, semi-automated protocol, 16-point dilution, 1,000 cells/well, 500 nM BAAA, 30 min

Molecule	IC50 [1, 4] [µM]	IC50 [2, 6] [µM]	Activity in ALDEFLUOR assay, MIA PaCa-2 [1]	Activity in ALDEFLUOR assay, HT-29 [2]	other results
CC(C)=CCCC(C)=CC=O (mixture of isomers) [Citral]	27.8	26.6			IC50 [1, 3]: ~27 µM; IC50 [2, 5]: ~27 µM
COc1ccc(C(=O)CCN(C)C)cc1F [Aldi-2]	18	17.5			
CC(C)(C)c1ccc(S(=O)(=O)/C=C/C#N)cc1 [Bay-11-7085]	20	14.3			
Cc1nc2ccccc2n1S(=O)(=O)c1ccc(F)cc1 [CB7]			tested negative	tested negative	
CCOc1ccc(NCC(=O)Nc2ccc(Cl)cc2C)cc1 [CID 725345]	9.46	14.5			
COc1cccc2cc(C(=O)CC3(O)C(=O)N(Cc4ccccc4)c4ccccc43)c(=O)oc12 (stereo not drawn) [CID 2929292]			tested negative	tested negative	
CCN(CC)c1ccc(C=O)cc1 [DEAB, 4-N,N-diethylaminobenzaldehyde]	3.44	1.69			
O=c1c(-c2ccc(O)cc2)coc2cc(O[C@@H]3O[C@H](CO)[C@@H](O)[C@H](O)[C@H]3O)ccc12 [Daidzin]			tested negative	tested negative	
CCN(CC)C(=S)SSC(=S)N(CC)CC [Disulfiram]					IC50 [1, 3]: 11 µM; IC50 [2, 5]: 10.9 µM
Cc1cc2c(C(C)C)c(O)c(O)c(C=O)c2c(O)c1-c1c(C)cc2c(C(C)C)c(O)c(O)c(C=O)c2c1O [Gossypol]			inactive	active	IC50 ([2]; Homo sapiens, HT-29, 0.5 h): 16.5 µM
Nc1ccccc1C(=O)CC(N)C(=O)O (stereo not drawn) [Kynurenine]			tested negative	tested negative	
C[S+](=O)([O-])c1ccc(Cn2c3c(c4cc(F)cc(F)c42)CCCC3CC(=O)O)cc1 [L-670596]					IC50 ([1]; Homo sapiens, MIA PaCa-2, retest of screen hits, 11-point dose response 0.77 nM to 45.8 μM, read-out: ALDEFLUOR IC50 MIA PaCa2): ~10 µM; IC50 ([1]; retest of screen hits, 11-point dose response 0.77 nM to 45.8 μM, read-out: ALDEFLUOR IC50 MIA PaCa2): 10.8 µM
C#CCN(C)Cc1ccccc1 [Pargyline]			inactive	active	IC50 ([1]; Homo sapiens, MIA PaCa-2, fully automated protocol-2 with two washes, read-out: IC50 of BAA signal reduction, automated protocol): ~5 µM; IC50 [2, 5]: 33.5 µM
CC(C)N(C(=O)CCl)c1ccccc1 [Propachlor]					IC50 ([1]; Homo sapiens, MIA PaCa-2, read-out: ALDEFLUOR IC50 MIA PaCa2): 0.3 µM
O=C1Nc2ccccc2C1=O [indoline-2,3-dione]					IC50 [1, 3]: 12 µM; IC50 [2, 5]: 17.8 µM
CVT-10216			tested negative	tested negative	
